Measurements published in ChEMBL document CHEMBL3525983, “Pharmacokinetics, metabolism, and disposition of rivoglitazone, a novel peroxisome proliferator-activated receptor γ agonist, in rats and monkeys” (Drug Metab Dispos, 2011).
Values belong to the compound of their own block, whether it stands above or below them.

Columns and labels:
[1] = Drug excretion in F344/DuCrlCrlj rat bile treated with [14C]rivoglitazone at 1 mg/kg, po administered via gavage measured during 0 to 48 hrs by radio-HPLC analysis; assay type: ADME, organism-based; design: dose 1 mg/kg, dosed compound name [14C]Rivoglitazone, route oral; details: in vivo
[2] = Drug excretion in monkey urine treated with [14C]rivoglitazone at 1 mg/kg, po administered via gavage measured during 0 to 72 hrs by radio-HPLC analysis; assay type: ADME, organism-based, Macaca mulatta; design: dose 1 mg/kg, dosed compound name [14C]Rivoglitazone, route oral; details: rhesus monkey, in vivo
[3] = Drug excretion in F344/DuCrlCrlj rat feces treated with [14C]rivoglitazone at 1 mg/kg, po administered via gavage measured during 0 to 48 hrs by radio-HPLC analysis; assay type: ADME, organism-based; design: dose 1 mg/kg, dosed compound name [14C]Rivoglitazone, route oral; details: in vivo
[4] = Retention time of the compound by LC-MS/MS analysis; assay type: physicochemical; design: dosed compound name [14C]Rivoglitazone
[5] = Drug excretion in F344/DuCrlCrlj rat urine/feces treated with [14C]rivoglitazone at 1 mg/kg, po administered via gavage measured during 0 to 48 hrs by radio-HPLC analysis; assay type: ADME, organism-based; design: dose 1 mg/kg, dosed compound name [14C]Rivoglitazone, route oral; details: in vivo
[6] = Drug excretion in F344/DuCrlCrlj rat urine/bile treated with [14C]rivoglitazone at 1 mg/kg, po administered via gavage measured during 0 to 48 hrs by radio-HPLC analysis; assay type: ADME, organism-based; design: dose 1 mg/kg, dosed compound name [14C]Rivoglitazone, route oral; details: in vivo
[7] = Drug excretion in F344/DuCrlCrlj rat urine treated with [14C]rivoglitazone at 1 mg/kg, po administered via gavage measured during 0 to 48 hrs by radio-HPLC analysis; assay type: ADME, organism-based; design: dose 1 mg/kg, dosed compound name [14C]Rivoglitazone, route oral; details: in vivo
[8] = Drug excretion in monkey urine/feces treated with [14C]rivoglitazone at 1 mg/kg, po administered via gavage measured during 0 to 72 hrs by radio-HPLC analysis; assay type: ADME, organism-based, Macaca mulatta; design: dose 1 mg/kg, dosed compound name [14C]Rivoglitazone, route oral; details: rhesus monkey, in vivo
[9] = Drug excretion in F344/DuCrlCrlj rat urine at 1 mg/kg, po administered via gavage measured during 0 to 48 hrs by liquid scintillation counting; assay type: ADME, organism-based; design: dose 1 mg/kg, dosed compound name [14C]Rivoglitazone, route oral; details: in vivo
Rattus norvegicus [10] = assay: Total drug excretion in F344/DuCrlCrlj rat at 1 mg/kg, po administered via gavage measured during 0 to 48 hrs by liquid scintillation counting; assay type: ADME, organism-based; design: dose 1 mg/kg, dosed compound name [14C]Rivoglitazone, route oral; details: in vivo
Rhesus monkey [11] = assay: Total drug excretion in monkey at 1 mg/kg, iv administered via tail vein measured during 0 to 168 hrs by liquid scintillation counting; assay type: ADME, organism-based, Macaca mulatta; design: dose 1 mg/kg, dosed compound name [14C]Rivoglitazone, route intravenous; details: in vivo
[12] = Drug excretion in monkey feces at 1 mg/kg, iv administered […] measured during 0 to 48 hrs by liquid scintillation counting; assay type: ADME, organism-based, Macaca mulatta; design: dose 1 mg/kg, dosed compound name [14C]Rivoglitazone, route intravenous; details: rhesus monkey, in vivo
[13] = Drug excretion in F344/DuCrlCrlj rat urine at 1 mg/kg, po administered via gavage measured during 0 to 168 hrs by liquid scintillation counting; assay type: ADME, organism-based; design: dose 1 mg/kg, dosed compound name [14C]Rivoglitazone, route oral; details: in vivo
[14] = Drug excretion in F344/DuCrlCrlj rat urine at 1 mg/kg, iv administered via tail vein measured during 0 to 168 hrs by liquid scintillation counting; assay type: ADME, organism-based; design: dose 1 mg/kg, dosed compound name [14C]Rivoglitazone, route intravenous; details: in vivo
Rhesus monkey [15] = assay: Total drug excretion in monkey at 1 mg/kg, iv administered via tail vein measured during 0 to 48 hrs by liquid scintillation counting; assay type: ADME, organism-based, Macaca mulatta; design: dose 1 mg/kg, dosed compound name [14C]Rivoglitazone, route intravenous; details: in vivo
Rhesus monkey [16] = assay: Total drug excretion in monkey at 1 mg/kg, po administered via gavage measured during 0 to 168 hrs by liquid scintillation counting; assay type: ADME, organism-based, Macaca mulatta; design: dose 1 mg/kg, dosed compound name [14C]Rivoglitazone, route oral; details: in vivo
[17] = Drug excretion in bile duct-cannulated rat feces at 0.5 mg/kg, iv administered via tail vein measured during 0 to 48 hrs by liquid scintillation counting; assay type: ADME, organism-based; design: dose 0.5 mg/kg, dosed compound name [14C]Rivoglitazone, route intravenous; details: in vivo
[18] = Drug excretion in bile duct-cannulated rat bile at 0.5 mg/kg, po administered via gavage measured during 0 to 48 hrs by liquid scintillation counting; assay type: ADME, organism-based; design: dose 0.5 mg/kg, dosed compound name [14C]Rivoglitazone, route oral; details: in vivo
[19] = Drug excretion in monkey urine at 1 mg/kg, po administered via gavage measured during 0 to 168 hrs by liquid scintillation counting; assay type: ADME, organism-based, Macaca mulatta; design: dose 1 mg/kg, dosed compound name [14C]Rivoglitazone, route oral; details: rhesus monkey, in vivo
Rattus norvegicus [20] = assay: Total drug excretion in F344/DuCrlCrlj rat at 1 mg/kg, iv administered via tail vein measured during 0 to 48 hrs by liquid scintillation counting; assay type: ADME, organism-based; design: dose 1 mg/kg, dosed compound name [14C]Rivoglitazone, route intravenous; details: in vivo
Rattus norvegicus [21] = assay: Drug excretion in bile duct-cannulated rat cage wash at 0.5 mg/kg, iv administered via tail vein measured during 0 to 48 hrs by liquid scintillation counting; assay type: ADME, organism-based; design: dose 0.5 mg/kg, dosed compound name [14C]Rivoglitazone, route intravenous; details: in vivo
[22] = Drug excretion in F344/DuCrlCrlj rat feces at 1 mg/kg, iv administered via tail vein measured during 0 to 168 hrs by liquid scintillation counting; assay type: ADME, organism-based; design: dose 1 mg/kg, dosed compound name [14C]Rivoglitazone, route intravenous; details: in vivo
Rattus norvegicus [23] = assay: Total drug excretion in F344/DuCrlCrlj rat at 1 mg/kg, iv administered via tail vein measured during 0 to 168 hrs by liquid scintillation counting; assay type: ADME, organism-based; design: dose 1 mg/kg, dosed compound name [14C]Rivoglitazone, route intravenous; details: in vivo
[24] = Drug excretion in bile duct-cannulated rat urine at 0.5 mg/kg, iv administered via tail vein measured during 0 to 48 hrs by liquid scintillation counting; assay type: ADME, organism-based; design: dose 0.5 mg/kg, dosed compound name [14C]Rivoglitazone, route intravenous; details: in vivo
Rattus norvegicus [25] = assay: Total drug excretion in bile duct-cannulated rat at 0.5 mg/kg, po administered via gavage measured during 0 to 48 hrs by liquid scintillation counting; assay type: ADME, organism-based; design: dose 0.5 mg/kg, dosed compound name [14C]Rivoglitazone, route oral; details: in vivo
Rhesus monkey [26] = assay: Total drug excretion in monkey at 1 mg/kg, po administered via gavage measured during 0 to 48 hrs by liquid scintillation counting; assay type: ADME, organism-based, Macaca mulatta; design: dose 1 mg/kg, dosed compound name [14C]Rivoglitazone, route oral; details: in vivo
Rhesus monkey [27] = assay: Drug excretion in monkey cage wash at 1 mg/kg, iv administered […] measured during 0 to 168 hrs by liquid scintillation counting; assay type: ADME, organism-based, Macaca mulatta; design: dose 1 mg/kg, dosed compound name [14C]Rivoglitazone, route intravenous; details: in vivo
[28] = Drug excretion in bile duct-cannulated rat bile at 0.5 mg/kg, iv administered via tail vein measured during 0 to 48 hrs by liquid scintillation counting; assay type: ADME, organism-based; design: dose 0.5 mg/kg, dosed compound name [14C]Rivoglitazone, route intravenous; details: in vivo
[29] = Drug excretion in monkey feces at 1 mg/kg, po administered via gavage measured during 0 to 168 hrs by liquid scintillation counting; assay type: ADME, organism-based, Macaca mulatta; design: dose 1 mg/kg, dosed compound name [14C]Rivoglitazone, route oral; details: rhesus monkey, in vivo
[30] = Drug excretion in F344/DuCrlCrlj rat urine at 1 mg/kg, iv administered via tail vein measured during 0 to 48 hrs by liquid scintillation counting; assay type: ADME, organism-based; design: dose 1 mg/kg, dosed compound name [14C]Rivoglitazone, route intravenous; details: in vivo
Rhesus monkey [31] = assay: Drug excretion in monkey cage wash at 1 mg/kg, po administered via gavage measured during 0 to 168 hrs by liquid scintillation counting; assay type: ADME, organism-based, Macaca mulatta; design: dose 1 mg/kg, dosed compound name [14C]Rivoglitazone, route oral; details: in vivo
[32] = Drug excretion in monkey urine at 1 mg/kg, iv administered via tail vein measured during 0 to 168 hrs by liquid scintillation counting; assay type: ADME, organism-based, Macaca mulatta; design: dose 1 mg/kg, dosed compound name [14C]Rivoglitazone, route intravenous; details: rhesus monkey, in vivo
[33] = Drug excretion in F344/DuCrlCrlj rat feces at 1 mg/kg, po administered via gavage measured during 0 to 48 hrs by liquid scintillation counting; assay type: ADME, organism-based; design: dose 1 mg/kg, dosed compound name [14C]Rivoglitazone, route oral; details: in vivo
Rattus norvegicus [34] = assay: Total drug excretion in bile duct-cannulated rat at 0.5 mg/kg, iv administered via tail vein measured during 0 to 48 hrs by liquid scintillation counting; assay type: ADME, organism-based; design: dose 0.5 mg/kg, dosed compound name [14C]Rivoglitazone, route intravenous; details: in vivo
[35] = Drug excretion in bile duct-cannulated rat feces at 0.5 mg/kg, po administered via gavage measured during 0 to 48 hrs by liquid scintillation counting; assay type: ADME, organism-based; design: dose 0.5 mg/kg, dosed compound name [14C]Rivoglitazone, route oral; details: in vivo
[36] = Drug excretion in monkey feces at 1 mg/kg, po administered via gavage measured during 0 to 48 hrs by liquid scintillation counting; assay type: ADME, organism-based, Macaca mulatta; design: dose 1 mg/kg, dosed compound name [14C]Rivoglitazone, route oral; details: rhesus monkey, in vivo
Rattus norvegicus [37] = assay: Drug excretion in bile duct-cannulated rat cage wash at 0.5 mg/kg, po administered via gavage measured during 0 to 48 hrs by liquid scintillation counting; assay type: ADME, organism-based; design: dose 0.5 mg/kg, dosed compound name [14C]Rivoglitazone, route oral; details: in vivo
Rattus norvegicus [38] = assay: Total drug excretion in F344/DuCrlCrlj rat at 1 mg/kg, po administered via gavage measured during 0 to 168 hrs by liquid scintillation counting; assay type: ADME, organism-based; design: dose 1 mg/kg, dosed compound name [14C]Rivoglitazone, route oral; details: in vivo
[39] = Drug excretion in bile duct-cannulated rat urine at 0.5 mg/kg, po administered via gavage measured during 0 to 48 hrs by liquid scintillation counting; assay type: ADME, organism-based; design: dose 0.5 mg/kg, dosed compound name [14C]Rivoglitazone, route oral; details: in vivo
[40] = Drug excretion in F344/DuCrlCrlj rat feces at 1 mg/kg, po administered via gavage measured during 0 to 168 hrs by liquid scintillation counting; assay type: ADME, organism-based; design: dose 1 mg/kg, dosed compound name [14C]Rivoglitazone, route oral; details: in vivo
[41] = Drug excretion in monkey urine at 1 mg/kg, iv administered via tail vein measured during 0 to 48 hrs by liquid scintillation counting; assay type: ADME, organism-based, Macaca mulatta; design: dose 1 mg/kg, dosed compound name [14C]Rivoglitazone, route intravenous; details: rhesus monkey, in vivo
[42] = Drug excretion in monkey urine at 1 mg/kg, po administered via gavage measured during 0 to 48 hrs by liquid scintillation counting; assay type: ADME, organism-based, Macaca mulatta; design: dose 1 mg/kg, dosed compound name [14C]Rivoglitazone, route oral; details: rhesus monkey, in vivo
[43] = Drug excretion in monkey feces at 1 mg/kg, iv administered […] measured during 0 to 168 hrs by liquid scintillation counting; assay type: ADME, organism-based, Macaca mulatta; design: dose 1 mg/kg, dosed compound name [14C]Rivoglitazone, route intravenous; details: rhesus monkey, in vivo
[44] = Drug excretion in F344/DuCrlCrlj rat feces at 1 mg/kg, iv administered via tail vein measured during 0 to 48 hrs by liquid scintillation counting; assay type: ADME, organism-based; design: dose 1 mg/kg, dosed compound name [14C]Rivoglitazone, route intravenous; details: in vivo

- Compound recovery [1]: 2.8%
- Compound recovery [2]: 1.2%
- Compound recovery [3]: metabolite_not_detected
- Retention_time [4]: 12.9 min
- Compound recovery [5]: 0.7%
- Compound recovery [6]: 3.5%
- Compound recovery [7]: 0.7%
- Compound recovery [8]: 1.2%
SMILES: CSC(Cc1ccc(OCc2nc3ccc(O[C@@H]4O[C@H](C(=O)O)[C@@H](O)[C@H](O)[C@H]4O)cc3n2C)cc1)C(N)=O (some centres undefined)

- Radiolabel recovery [9]: 18%
- Radiolabel recovery (Rattus norvegicus [10]): 99.1%
- Radiolabel recovery (Rhesus monkey [11]): 86%
- Radiolabel recovery [12]: 10.3%
- Radiolabel recovery [13]: 18.3%
- Radiolabel recovery [14]: 25.6%
- Radiolabel recovery (Rhesus monkey [15]): 49.7%
- Radiolabel recovery (Rhesus monkey [16]): 90%
- Radiolabel recovery [17]: 7%
- Radiolabel recovery [18]: 37.2%
- Radiolabel recovery [19]: 36.7%
- Radiolabel recovery (Rattus norvegicus [20]): 99.7%
- Radiolabel recovery (Rattus norvegicus [21]): 5.7%
- Radiolabel recovery [22]: 75.4%
- Radiolabel recovery (Rattus norvegicus [23]): 101%
- Radiolabel recovery [24]: 18.4%
- Radiolabel recovery (Rattus norvegicus [25]): 81%
- Radiolabel recovery (Rhesus monkey [26]): 54.3%
- Radiolabel recovery (Rhesus monkey [27]): 0.1%
- Radiolabel recovery [28]: 55.4%
- Radiolabel recovery [29]: 53%
- Radiolabel recovery [30]: 25.5%
- Radiolabel recovery (Rhesus monkey [31]): 0.2%
- Radiolabel recovery [32]: 47.4%
- Radiolabel recovery [33]: 81.1%
- Radiolabel recovery (Rattus norvegicus [34]): 86.5%
- Radiolabel recovery [35]: 19.1%
- Radiolabel recovery [36]: 24.6%
- Radiolabel recovery (Rattus norvegicus [37]): 4.8%
- Radiolabel recovery (Rattus norvegicus [38]): 100%
- Radiolabel recovery [39]: 19.9%
- Radiolabel recovery [40]: 82%
- Radiolabel recovery [41]: 39.4%
- Radiolabel recovery [42]: 29.7%
- Radiolabel recovery [43]: 38.4%
- Radiolabel recovery [44]: 74.2%
SMILES: COc1ccc2nc(COc3ccc(C[14CH]4SC(=O)NC4=O)cc3)n(C)c2c1 (racemic)
